Among the test systems are CAKI-1; HCT-116; HT-29; IGROV-1; M19-MEL; MOLT-4; NCI-H23; OVCAR-3; OVCAR-4; RPMI-8226; SF-295; SF-539; SK-MEL-2; SK-OV-3; SW-620; UACC-257; UACC-62; UO-31.
Holding throughout (assay): NCI-60 cell line screen, 48 h

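Five concentrations, 48 hours, 96-well plates. GI50 = concentration required for 50% inhibition of growth.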 Calls of active or inactive are those of the source. Rule as the data show it: active = GI50 up to about 1.1 µM and inactive = higher.

From ChEMBL document CHEMBL1201862, “PubChem BioAssay data set” (2004) come the findings set out here.

As for `CC(C)c1cccc(C(C)C)c1/N=C(/N)C#N`, the GI50 with CAKI-1 was > 100 µM (inactive); with HCT-116, > 44.6 µM (inactive); in the experiment on HT-29 it was > 58.6 µM (inactive); with IGROV-1, > 100 µM (inactive); with M19-MEL, > 60 µM (inactive); with MOLT-4, > 45.9 µM (inactive). Besides, the GI50 is > 100 µM (inactive) in the experiment with NCI-H23; > 100 µM (inactive) in the experiment with OVCAR-3; > 100 µM (inactive) in the experiment on OVCAR-4; 34.4 µM (inactive) with RPMI-8226; > 100 µM (inactive) in the experiment on SF-295; 22.8 µM (inactive) with SF-539. The GI50 in the experiment on SK-MEL-2 is > 90.6 µM (inactive); in the experiment with SK-OV-3, > 100 µM (inactive); in the experiment with SW-620, 22.1 µM (inactive); in the experiment on UACC-257 it was > 46.6 µM (inactive); with UACC-62, > 50.2 µM (inactive); in the experiment with UO-31, > 100 µM (inactive).
As to `Cc1ccc(S(=O)(=O)c2c(N)n(CCN(C)C)c3nc4ccccc4nc23)cc1`, the GI50 with HCT-116, with HT-29, with IGROV-1, in the experiment with M19-MEL, in the experiment on MOLT-4 and with NCI-H23 was > 100 µM (inactive) in each case. Moreover, the GI50 in the experiment with OVCAR-3, in the experiment with OVCAR-4, in the experiment on RPMI-8226, with SF-295, in the experiment with SF-539 and in the experiment with SK-MEL-2 was > 100 µM (inactive) each time. Besides, the GI50 in the experiment on SK-OV-3 is > 100 µM (inactive); with UACC-257 it was 71.9 µM (inactive); in the experiment on UO-31 it was > 100 µM (inactive).
With `O=C(O)[C@@H](NS(=O)(=O)c1ccc2ccccc2c1)c1ccccc1`, the GI50 with CAKI-1, in the experiment on HT-29, with IGROV-1, in the experiment with M19-MEL, in the experiment on MOLT-4 and with NCI-H23 was > 100 µM (inactive) each time. In addition, the GI50 with OVCAR-4, in the experiment with RPMI-8226, in the experiment with SF-539, in the experiment on SK-MEL-2, in the experiment with SK-OV-3 and with UACC-257 was > 100 µM (inactive) throughout. Also, the GI50 in the experiment on UACC-62 and in the experiment on UO-31 was > 100 µM (inactive) in each case.
Regarding `COc1cc2c(c(OC)c1O)-c1ccc(SC)c(=O)cc1C(NC(C)=O)CC2` (stereo not given), the GI50 in the experiment with CAKI-1 was 0.285 µM (active); in the experiment on HCT-116 it was < 0.01 µM (active); with HT-29 it was 0.0119 µM (active); in the experiment with IGROV-1 it was 0.0593 µM (active); in the experiment with M19-MEL it was < 0.01 µM (active); in the experiment with MOLT-4 it was < 0.0122 µM (active). Also, the GI50 is 0.0167 µM (active) in the experiment on NCI-H23; < 0.01 µM (active) in the experiment on OVCAR-3; > 40.6 µM (inactive) with OVCAR-4; < 0.0121 µM (active) with RPMI-8226; 0.0184 µM (active) with SF-295; < 0.01 µM (active) in the experiment on SF-539. Further, the GI50 was < 0.01 µM (active) in the experiment on SK-MEL-2; 0.215 µM (active) in the experiment with SK-OV-3; < 0.01 µM (active) with SW-620; 2.24 µM (inactive) in the experiment with UACC-257; < 0.0119 µM (active) in the experiment with UACC-62; 5.96 µM (inactive) in the experiment with UO-31.
On to `O=C(CCN1CCC(CCO)CC1)Nc1ccc2c(c1)C(=O)c1ccc(NC(=O)CCN3CCC(CCO)CC3)cc1C2=O`, for which the GI50 in the experiment on CAKI-1 was 34.8 µM (inactive); in the experiment on HCT-116, 9.46 µM (inactive); with HT-29, 13.5 µM (inactive); in the experiment on IGROV-1 it was 24.7 µM (inactive); in the experiment on M19-MEL it was 97.5 µM (inactive); with MOLT-4, 4.13 µM (inactive). The GI50 was 26.5 µM (inactive) in the experiment with NCI-H23; 5.53 µM (inactive) with OVCAR-3; 12.5 µM (inactive) in the experiment on OVCAR-4; 25.9 µM (inactive) in the experiment on RPMI-8226; > 100 µM (inactive) in the experiment with SF-295; 6.28 µM (inactive) in the experiment on SF-539. Moreover, the GI50 was 3.76 µM (inactive) in the experiment on SK-MEL-2; 7.96 µM (inactive) in the experiment on SK-OV-3; 4.79 µM (inactive) in the experiment on SW-620; 19.5 µM (inactive) in the experiment on UACC-257; 9.04 µM (inactive) with UACC-62; 34.4 µM (inactive) in the experiment on UO-31.
For the compound `CC(=O)O[C@H]1C(N(C)C(=O)c2ccccc2)CC[C@]2(C)C3CC[C@@]4(C)C(CC(O)[C@@H]4C(C)N(C)C)[C@@H]3CCC12` (stereo not given in full), the GI50 with CAKI-1, in the experiment with HCT-116, with HT-29, in the experiment with IGROV-1, with M19-MEL and in the experiment on MOLT-4 was > 100 µM (inactive) throughout. Also, the GI50 with NCI-H23, in the experiment with OVCAR-3, in the experiment on OVCAR-4, in the experiment with RPMI-8226, in the experiment on SF-295 and with SF-539 was > 100 µM (inactive) in each case. In addition, the GI50 in the experiment on SK-MEL-2, with SK-OV-3, in the experiment with SW-620, in the experiment on UACC-257 and in the experiment on UACC-62 was > 100 µM (inactive) throughout.
Consider `CN1C(=O)N(C)C2(O)c3ccccc3C(=O)C12O` (stereo not given), for which the GI50 in the experiment with CAKI-1, in the experiment with HCT-116, in the experiment with HT-29, in the experiment on IGROV-1, in the experiment with M19-MEL and in the experiment on MOLT-4 was > 100 µM (inactive) each time. For the same compound, the GI50 with NCI-H23, with OVCAR-3, in the experiment with OVCAR-4, with RPMI-8226, with SF-295 and in the experiment on SF-539 was > 100 µM (inactive) throughout. Further, the GI50 in the experiment with SK-MEL-2, in the experiment with SK-OV-3, with SW-620, in the experiment on UACC-257, in the experiment on UACC-62 and in the experiment on UO-31 was > 100 µM (inactive) each time.
As to `C=CCNC(=O)NCCCC(NC(C)=O)C(=O)NCc1ccccc1` (stereo not given), the GI50 in the experiment with CAKI-1, with HT-29, in the experiment with IGROV-1, in the experiment with M19-MEL, with MOLT-4 and in the experiment on NCI-H23 was > 100 µM (inactive) throughout. The GI50 with OVCAR-3, in the experiment with OVCAR-4, in the experiment on RPMI-8226, with SF-295, in the experiment on SF-539 and with SK-MEL-2 was > 100 µM (inactive) in each case. Besides, the GI50 in the experiment with SK-OV-3, in the experiment on SW-620, in the experiment on UACC-257, with UACC-62 and in the experiment on UO-31 was > 100 µM (inactive) in each case.
Regarding `COC(=O)C(=O)C(C(=O)C=C(C)C)C(=O)C(=O)Nc1nc2ccc([N+](=O)[O-])cc2s1` (stereo not given), the GI50 in the experiment with CAKI-1 was 29.5 µM (inactive); in the experiment with HCT-116, 50 µM (inactive); in the experiment with HT-29 it was > 100 µM (inactive); in the experiment on IGROV-1, 24.9 µM (inactive); in the experiment with M19-MEL, > 100 µM (inactive); in the experiment with MOLT-4, 36.4 µM (inactive). The GI50 is 24.9 µM (inactive) in the experiment with NCI-H23; 44.6 µM (inactive) in the experiment with OVCAR-3; 52.5 µM (inactive) with OVCAR-4; 28.4 µM (inactive) with RPMI-8226; 36.6 µM (inactive) with SF-539; 49.5 µM (inactive) in the experiment with SK-MEL-2. Also, the GI50 is 39.9 µM (inactive) with SK-OV-3; > 100 µM (inactive) in the experiment with SW-620; 79.8 µM (inactive) in the experiment on UACC-257; 38.5 µM (inactive) with UACC-62; 41.5 µM (inactive) in the experiment on UO-31.
Regarding `Nc1c(-c2ccc(Cl)cc2Cl)[n+]([O-])c2ccccc2[n+]1[O-]`, the GI50 in the experiment with CAKI-1, with HT-29, in the experiment with IGROV-1, with M19-MEL, in the experiment with MOLT-4 and in the experiment with NCI-H23 was > 100 µM (inactive) in each case. In addition, the GI50 in the experiment with OVCAR-3, in the experiment with OVCAR-4, in the experiment on RPMI-8226, in the experiment with SF-295, in the experiment on SF-539 and with SK-MEL-2 was > 100 µM (inactive) each time. Also, the GI50 with SK-OV-3, in the experiment on SW-620, in the experiment on UACC-257, with UACC-62 and in the experiment on UO-31 was > 100 µM (inactive) in each case.
As to `CC(=O)Nc1ccc(/C=C/C(=O)c2sc(C(N)=S)nc2C)cc1`, the GI50 in the experiment with CAKI-1, with HT-29, in the experiment on IGROV-1, in the experiment with M19-MEL, in the experiment with MOLT-4 and with NCI-H23 was > 100 µM (inactive) in each case. Besides, the GI50 in the experiment on OVCAR-3, in the experiment on RPMI-8226, in the experiment with SF-295, in the experiment on SF-539, in the experiment on SK-MEL-2 and with SK-OV-3 was > 100 µM (inactive) throughout. The GI50 in the experiment on SW-620, in the experiment with UACC-257, with UACC-62 and with UO-31 was > 100 µM (inactive) throughout.
